Experimental data from patent US20250325581A1, “USE OF SODIUM PENTABORATE PENTAHYDRATE AS A CHEMOTHERAPEUTIC AGENT” (YEDITEPE UNIVERSITESI, priority 2022, published 2025).
Like-named read-outs stand apart in the source and are kept apart here.

Experiments:
[1] = test system: ACHN and A498 renal cancer cells; conditions: dosage determined by the MTS assay
Procedure: Cell proliferation analyses of renal cancer cells treated with the agent at the dosage determined by the MTS assay are performed by EdU (Ethinyl-2′-deoxyuridine) assay. […] For this assay, 10 uM EdU is applied to the cells cultured on slides placed in 6-well plates. Following the incubation, cells are fixed for 15 minutes with 3.7% formaldehyde diluted in PBS, and then washed with 3% BSA also diluted in PBS. Cell membrane permeability is increased by treatment with 0.5% nonionic surfactant diluted in PBS at room temperature for 20 minutes. After a final washing with 3% BSA solution, the reaction cocktail is added to the cells. Cells are incubated at room temperature for 30 minutes, and then the EdU-stained cells, which are actively synthesizing DNA, are observed under a confocal microscope.

[2] = test system: renal cancer cells (ACHN and A498) and healthy renal cells (RPTEC); conditions: IC50 dose for cancer cells applied 72 hours; cancer vs healthy cells
Procedure: Whether the death rates of renal cancer cells treated with the agent at the dosage determined by the MTS assay are dependent on apoptosis or not is determined by Annexin V assay. […] Annexin V binds to PSs, which were translocated to the outer surface of the cell, thereby making the apoptotic cell visible and it is measured by flow cytometry. Since Annexin V binding can also be observed on the surface of necrotic cells, Propidium Iodide (Red Fluorescence), which stains only dead cells, was added as a second stain. Cells, which are simultaneously stained with Annexin V-FITC (Green Fluorescence) and Propidium Iodide (Red Fluorescence), allow viable cells (FITC−PI−), early apoptotic cells (FITC+PI−), and late apoptotic or necrotic cells (FITC+PI+) to be distinguished from each other. Cells marked with Annexin V-FITCH-conjugated markers are analyzed by flow cytometry.

A498 renal cancer cells = test system: A498 renal cancer cells
Procedure: (§1) The effective dose of NaB on renal cancer was determined by colorimetric tetrazolium (MTS) viability assay on renal cancer cells (ACHN and A498) and healthy renal cells (RPTEC). MTS (3-(4,5-dimethyl-thiazol-2-yl)-5-(3-carboxy-methoxy-phenyl)-2-(4-sulfo-phenyl)-2H-tetrazolium) is a colorimetric assay based on the tetrazolium salt. The assay measures the enzyme activity which reduces MTS to the purple formazan. Cell cultures incubated for two hours are read by measuring the absorbance at 490 nm wavelength by means of ELISA. The NaB compound is dissolved at different concentrations (at ratios of 500 μg/ml, 1000 μg/ml, 1500 μg/ml, 2000 μg/ml, 2500 μg/ml, 3000 μg/ml, 3500 μg/ml for renal cancer cells, and 500 μg/ml, 1000 μg/ml, 2500 μg/ml, 5000 μg/ml, 7000 μg/ml for healthy renal cells) in the medium suitable for the cell used (30 seconds of vortexing is applied after the addition of the agent), filtered through 0.22 micron filters, and sterilized. MTS assays are performed at hours 24, 48, and 72, and as a result, the concentrations of dead cells at the IC50 dose are determined and the next steps are continued with these dosages.

ACHN renal cancer cells = test system: ACHN renal cancer cells
Procedure: as §1

IC50 determined by MTS (A498 renal cancer cells; A498, Hour 24): >7000 µg/mL
IC50 determined by MTS (A498 renal cancer cells; A498, Hour 48): 1900 µg/mL
IC50 determined by MTS (ACHN renal cancer cells; Hour 24): >7000 µg/mL
IC50 determined by MTS (ACHN renal cancer cells; Hour 48): 2000 µg/mL
Substance: sodium pentaborate pentahydrate
effect on cell proliferation [1]: slows down cell proliferation
programmed cell death (apoptosis) [2]: selectively leads cancer cells to programmed cell death
IC50 determined by MTS (dose which killed 50% of renal cancer cells) (A498 renal cancer cells; A498, Hour 72): 1400 µg/mL
IC50 (A498 renal cancer cells; read-out: dose which killed 50% of renal cancer cells, A498, molar equivalent of the μg/ml value): 4.7 mM
IC50 determined by MTS (dose which killed 50% of renal cancer cells) (ACHN renal cancer cells; Hour 72): 1550 µg/mL
IC50 (ACHN renal cancer cells; read-out: dose which killed 50% of renal cancer cells, molar equivalent of the μg/ml value): 5.2 mM
